Laboratory results taken from the NIST ThermoML archive (doi:10.1021/je9003383).
± gives the expanded uncertainty stated by the source.

Experiment: mn = molality of the nth substance listed, in mol/kg
Conditions: 293.15 K, 101 kPa, Liquid, Vibrating tube method

Row | mass density (m1 = 0.2628) [kg/m3] | mass density (m1 = 0.4689) [kg/m3] | mass density (m1 = 0.7153) [kg/m3] | mass density (m1 = 0.9675) [kg/m3] | mass density (m1 = 1.268) [kg/m3] | mass density (m1 = 1.448) [kg/m3] | Structure (SMILES) | mass density (m1 = 1.867) [kg/m3] | mass density (m1 = 4.118) [kg/m3] | mass density (m1 = 6.189) [kg/m3] | mass density (m1 = 8.119) [kg/m3] | mass density (m1 = 10.03) [kg/m3] | mass density (m1 = 12.1) [kg/m3]
1 |  |  |  |  |  |  | CN(CCO)CCO [N-methyldiethanolamine] + O | 1014.8 ± 1 | 1029.6 ± 1 | 1038.8 ± 1 | 1044.8 ± 1 | 1048.6 ± 1.1 | 1051.6 ± 1.1
2 | 999.1 ± 1 | 999.8 ± 1 | 1000.8 ± 1 | 1001.8 ± 1 | 1003.1 ± 1 | 1004 ± 1 | C1CNCCN1 [piperazine] + O |  |  |  |  |  | 
